Test results taken from PubChem BioAssay (NCI).
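96-well plates; 48 h exposure; 5 concentrations. Endpoints by linear interpolation between flanking doses. Not reached: highest tested concentration assigned. Abbreviation: GI50, concentration required for 50% inhibition of growth. TGI denotes the concentration required for complete inhibition of growth.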

Tests used:
Assay in all cases: NCI-60 cell line screen, 48 h
[1] = test system: HCT-15 colon
[2] = test system: T-47D breast
[3] = test system: UACC-62 melanoma
[4] = test system: SNB-75 CNS
[5] = test system: SK-MEL-2 melanoma
[6] = test system: KM12 colon
[7] = test system: SF-295 CNS
[8] = test system: DU-145 prostate
[9] = test system: IGROV1 ovarian
[10] = test system: SR leukemia

Row | Structure (SMILES) | GI50 [1] | TGI [1] | GI50 [2] | TGI [2] | GI50 [3] | TGI [3] | GI50 [4] | TGI [4] | GI50 [5] | TGI [5] | GI50 [6] | TGI [6] | GI50 [7] | TGI [7] | GI50 [8] | TGI [8] | GI50 [9] | TGI [9] | GI50 [10] | TGI [10]
1 | O=C(NO)c1cnc(N2CCN(S(=O)(=O)c3ccc4ccccc4c3)CC2)nc1 | 69 nM | 15600 nM | 22.7 nM | 1790 nM | 37.4 nM | 220 nM | 26.5 nM | 10800 nM | 34.5 nM | 214 nM | 75.9 nM | 412 nM | 53.2 nM | 268 nM | 44.5 nM | 2230 nM | 162 nM | 780 nM | 38.7 nM | > 90700 nM
2 | CC(=O)OCC(=O)C1(O)C(C)CC2C3C=C(C)C4=Cc5c(cnn5-c5ccccc5)CC4(C)C3C(O)CC21C (centres undefined) | 1150 nM | 2540 nM | 2630 nM | 9390 nM | 1770 nM | 3800 nM | 1890 nM | 5920 nM | 1660 nM | 3850 nM | 1320 nM | 2780 nM | 624 nM | 2630 nM | 1930 nM | 5740 nM | 1990 nM | 6480 nM | 1630 nM | > 27200 nM
3 | Brc1ccc(Br)nn1 | 1740 nM | 3660 nM | 1360 nM | 3770 nM | 1880 nM | 6240 nM | 1970 nM | 8410 nM | 2910 nM | 20400 nM | 12000 nM | 26100 nM | 5380 nM | 18600 nM | 3730 nM | 13400 nM | 2000 nM | 4920 nM | 439 nM | 3520 nM
4 | CCOC(=O)C(Cc1ccc(OC)cc1)C(=O)OCC | 3770 nM | 19400 nM | 2800 nM | 12400 nM | 4660 nM | 17300 nM | 2720 nM | 9350 nM | 2640 nM | 8660 nM | 3010 nM | 9850 nM | 5000 nM | 20300 nM | 2650 nM | 7710 nM | 3460 nM | 14300 nM | 1880 nM | 5380 nM
5 | CCc1ccccc1-n1c(N)c(C#N)c(-c2ccc(OC)c(OC)c2)c(C#N)c1=O | 37400 nM | > 100000 nM | 27200 nM | > 100000 nM | 16300 nM | 37700 nM | 17800 nM | 32100 nM | 25800 nM | 80600 nM | 16900 nM | 34600 nM | 22400 nM | 61100 nM | 29600 nM | > 100000 nM | 19500 nM | 60000 nM | 15000 nM | > 100000 nM
6 | C[C@@H](Oc1cc(-c2cnn(C3CC4(CCCNC4)C3)c2)cnc1N)c1c(Cl)ccc(F)c1Cl (some centres undefined) | 1300 nM | 3160 nM | 1610 nM | 3420 nM | 1580 nM | 3090 nM | 1640 nM | 3960 nM | 1690 nM | 3240 nM | 48.5 nM | 1320 nM | 247 nM | 2130 nM | 1880 nM | 6920 nM | 2990 nM | 13600 nM | 82.7 nM | 1410 nM
7 | C/C(=N\Nc1cccc(Cl)n1)c1ccccn1 | 363 nM | > 100000 nM | 1090 nM | 13100 nM | 1220 nM | 4930 nM | 2280 nM | > 56900 nM | 2720 nM | > 100000 nM | 548 nM | > 100000 nM | 827 nM | > 32300 nM | 692 nM | > 100000 nM | 533 nM | > 59100 nM | 421 nM | > 44200 nM
8 | N#CSCC(=O)c1ccc(Cl)cc1 | 2850 nM | 32200 nM | 7840 nM | 67900 nM | 6400 nM | 21500 nM | 2750 nM | 22200 nM | 5450 nM | 25700 nM | 2590 nM | 7330 nM | 2890 nM | 13500 nM | 2540 nM | 6150 nM | 1330 nM | 6600 nM | 190 nM | > 24600 nM
9 | COc1cc2c3c(c1O)C1(C=CC(=O)C=C1)CC3N(C)CC2 (centres undefined) |  | 19000 nM |  | 26200 nM |  | 23100 nM |  | 43400 nM |  | 25900 nM |  | 17500 nM |  | 24300 nM |  | 26000 nM |  | 25400 nM |  | 25800 nM
10 | COC(=O)Nc1nc2ccc(Sc3ccccc3)cc2[nH]1 | 82.5 nM | 23000 nM | 436 nM | > 81200 nM | 405 nM | 23900 nM | 195 nM | 2050 nM | 162 nM | 2880 nM | 63.4 nM | 22300 nM | 152 nM | 19900 nM | 336 nM | 10800 nM | 441 nM | 18300 nM | 35 nM | 
11 | ClC1=C(Cl)C(Cl)=C(Cl)C1=Cc1ccc(Cl)cc1 | 536 nM | 2560 nM | 484 nM | 2040 nM | 363 nM | 1650 nM | 1440 nM | 3260 nM | 2130 nM | 4350 nM | 844 nM | 2380 nM | 2270 nM | 8850 nM | 629 nM | 2070 nM | 396 nM | 2110 nM | 253 nM | 1720 nM
